In test [1] the target is T1, SMYD3 (Homo sapiens (Human), UniProt Q9H7B4). As to the kind of experiment: SMYD3 biochemical assay (SPA, 3H-SAM methylation of MEKK2 protein substrate). To be noted: average of n = 1 to n = 50; read-out: SMYD3 Biochem IC50. The method, boiled down:
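Methylation of N-terminally GST-tagged MEKK2 by untagged full-length human SMYD3, using 3H-SAM, in pH 8.0 Tris buffer with TCEP, BSG and Tween 20; enzyme and compound sat 30 min at room temperature before substrate addition. Stopped with 100 uM (final) cold SAM; incorporation read by scintillation proximity as dpm/cpm.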

Test [2] concerns the target T1, SMYD3. In words: SMYD3 cell assay (Trimethyl-MEKK2 In-Cell Western in 293T/17 cells). To be noted: average of n = 1 to n = 50; read-out: SMYD3 Cell IC50. In kind it is cell-based. The method, boiled down:
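In-Cell Western readout: methanol-fixed cells stained for trimethyl-MEKK2 and flag tag, ratio per well normalized to DMSO and background controls.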

T1 sequence (Q9H7B4 whole entry): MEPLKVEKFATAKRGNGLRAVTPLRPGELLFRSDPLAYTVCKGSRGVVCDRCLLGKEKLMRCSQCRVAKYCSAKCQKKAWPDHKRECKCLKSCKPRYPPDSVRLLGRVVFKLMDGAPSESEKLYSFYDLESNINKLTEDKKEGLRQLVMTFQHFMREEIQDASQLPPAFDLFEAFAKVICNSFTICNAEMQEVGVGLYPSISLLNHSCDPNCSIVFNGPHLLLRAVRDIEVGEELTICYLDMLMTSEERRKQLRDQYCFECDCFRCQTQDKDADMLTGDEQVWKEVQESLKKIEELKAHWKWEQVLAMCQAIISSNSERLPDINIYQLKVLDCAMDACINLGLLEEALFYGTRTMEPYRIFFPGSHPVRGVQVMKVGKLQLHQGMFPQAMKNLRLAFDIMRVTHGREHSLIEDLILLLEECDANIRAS

In general, IC50 refers to the concentration at which inhibition is half-maximal. With `CN1CCC(CS(=O)(=O)N2CC[C@H](NC(=O)c3cc(C4CC4)on3)C[C@@H]2Cc2ccccc2)CC1` [compound 682, N-((2S,4S)-2-benzyl-1-(((1-methylpiperidin-4-yl)methyl)sulfonyl)piperidin-4-yl)-5-cyclopropylisoxazole-3-carboxamide], the IC50 came to 121 nM in test [1] and 1250 nM in test [2].
For the compound `C[C@@H]1C[C@H](NC(=O)c2cc(C3CC3)on2)CCN1C(=O)c1ccc(N2CCNCC2)nc1` [compound 683, 5-cyclopropyl-N-((2R,4R)-2-methyl-1-(6-(piperazin-1-yl)nicotinoyl)piperidin-4-yl)isoxazole-3-carboxamide], the IC50 in test [1] came out at 122 nM; in test [2] it was 1780 nM.
On the same counts, the results for `CN1CCN(S(=O)(=O)N2[C@@H]3CC[C@H]2C[C@@H](NC(=O)c2cc(C4CC4)on2)C3)CC1CO` (stereo partly drawn) [compound 684, 5-cyclopropyl-N-((1R,3r,5S)-8-((3-(hydroxymethyl)-4-methylpiperazin-1-yl)sulfonyl)-8-azabicyclo[3.2.1]octan-3-yl)isoxazole-3-carboxamide] are 122 nM and 923 nM.
As for `C[C@@H]1CN(S(=O)(=O)N2CCN(C)CC2)[C@H](C)C[C@@H]1NC(=O)c1cc(C2CC2)on1` [compound 685, 5-cyclopropyl-N-((2R,4S,5R)-2,5-dimethyl-1-((4-methylpiperazin-1-yl)sulfonyl)piperidin-4-yl)isoxazole-3-carboxamide], the IC50 in test [1] stood at 124 nM; in test [2], 254 nM.
Regarding `C[C@@H]1C[C@H](NC(=O)c2cc(C3CC3)on2)CCN1C(=O)c1ccc(CN(C)C)cc1` [compound 686, 5-cyclopropyl-N-((2R,4R)-1-(4-((dimethylamino)methyl)benzoyl)-2-methylpiperidin-4-yl)isoxazole-3-carboxamide], the IC50 in test [1] is 129 nM; in test [2], 1540 nM.
On to `CN(C1CCNCC1)S(=O)(=O)N1[C@@H]2CCC[C@H]1C[C@H](NC(=O)c1cc(C3CC3)on1)C2` [compound 687, 5-cyclopropyl-N-((1R,3s,5S)-9-(N-methyl-N-(piperidin-4-yl)sulfamoyl)-9-azabicyclo[3.3.1]nonan-3-yl)isoxazole-3-carboxamide], for which the values for the IC50 in test [1] and in test [2] were 130 nM and 1710 nM, respectively.
As to `C[C@@H]1CN(S(=O)(=O)CCN)[C@H](C)C[C@@H]1NC(=O)c1cc(C2CC2)on1` [compound 688, N-((2R,4S,5R)-1-((2-aminoethyl)sulfonyl)-2,5-dimethylpiperidin-4-yl)-5-cyclopropylisoxazole-3-carboxamide], the IC50 in test [1] was found to be 131 nM; in test [2] it was 783 nM.
The corresponding values for `CC1CCCN1CCS(=O)(=O)N1[C@@H]2CC[C@H]1C[C@@H](NC(=O)c1cc(C3CC3)on1)C2` (stereo partly drawn) [compound 689, 5-cyclopropyl-N-((1R,3r,5S)-8-((2-(2-methylpyrrolidin-1-yl)ethyl)sulfonyl)-8-azabicyclo[3.2.1]octan-3-yl)isoxazole-3-carboxamide] are 131 nM and 764 nM.
As to `O=C(N[C@H]1C[C@H]2CC[C@@H](C1)N2S(=O)(=O)CCN1CCC(O)C1)c1cc(C2CC2)on1` (stereo partly drawn) [compound 690, 5-cyclopropyl-N-((1R,3r,5S)-8-((2-(3-hydroxypyrrolidin-1-yl)ethyl)sulfonyl)-8-azabicyclo[3.2.1]octan-3-yl)isoxazole-3-carboxamide], the IC50 amounted to 138 nM in test [1] and 553 nM in test [2].
For `O=C(N[C@H]1CCN(S(=O)(=O)CC2CCNCC2)[C@H](Cc2ccccc2)C1)c1cc(C2CC2)on1` [compound 691, N-((2R,4S)-2-benzyl-1-((piperidin-4-ylmethyl)sulfonyl)piperidin-4-yl)-5-cyclopropylisoxazole-3-carboxamide], the IC50 was 144 nM in test [1] and 1950 nM in test [2].
As to `CC1CN(S(=O)(=O)N2[C@@H]3CC[C@H]2C[C@@H](NC(=O)c2cc(C4CC4)on2)C3)CC(C)N1` (stereo partly drawn) [compound 692, 5-cyclopropyl-N-((1R,3r,5S)-8-((3,5-dimethylpiperazin-1-yl)sulfonyl)-8-azabicyclo[3.2.1]octan-3-yl)isoxazole-3-carboxamide], the IC50 in test [1] stood at 148 nM; in test [2] it was 637 nM.
With `C[C@H]1CN(S(=O)(=O)CC2CCN(CCN3CCCCC3)CC2)CC[C@H]1NC(=O)c1cc(C2CC2)on1` [compound 693, 5-cyclopropyl-N-((3S,4R)-3-methyl-1-(((1-(2-(piperidin-1-yl)ethyl)piperidin-4-yl)methyl)sulfonyl)piperidin-4-yl)isoxazole-3-carboxamide], the IC50 in test [1] came to 156 nM; in test [2], 4040 nM.
For the compound `C[C@H]1CN(S(=O)(=O)CCN)[C@@H](C)C[C@H]1NC(=O)c1cc(C2CC2)on1` [compound 694, N-((2S,4R,5S)-1-((2-aminoethyl)sulfonyl)-2,5-dimethylpiperidin-4-yl)-5-cyclopropylisoxazole-3-carboxamide], the results for the IC50 in test [1] and in test [2] were 157 nM and 952 nM, respectively.
Regarding `C[C@H]1C[C@@H](NC(=O)c2cc(C3CC3)on2)CCN1S(=O)(=O)C(CCN)c1ccccc1` (stereo partly drawn) [compound 695, N-((2S,4S)-1-((3-amino-1-phenylpropyl)sulfonyl)-2-methylpiperidin-4-yl)-5-cyclopropylisoxazole-3-carboxamide], the concentration for half-maximal inhibition (IC50) is 169 nM in test [1] and 1830 nM in test [2].
With `C[C@H]1CN(S(=O)(=O)NC2CCN(Cc3ccccc3)CC2)CC[C@H]1NC(=O)c1cc(C2CC2)on1` [compound 696, N-((3S,4R)-1-(N-(1-benzylpiperidin-4-yl)sulfamoyl)-3-methylpiperidin-4-yl)-5-cyclopropylisoxazole-3-carboxamide], the IC50 in test [1] was 170 nM; in test [2], 1550 nM.
For the compound `C[C@H]1C[C@@H](NC(=O)c2cc(C3CC3)on2)CCN1S(=O)(=O)CCCNc1ccccc1` [compound 697, 5-cyclopropyl-N-((2S,4S)-2-methyl-1-((3-(phenylamino)propyl)sulfonyl)piperidin-4-yl)isoxazole-3-carboxamide], the IC50 in test [1] was 178 nM; in test [2] it was 1560 nM.
Consider `C[C@H]1CN(S(=O)(=O)CC2CCN(CCC(F)(F)F)CC2)CC[C@H]1NC(=O)c1cc(C2CC2)on1` [compound 698, 5-cyclopropyl-N-((3S,4R)-3-methyl-1-(((1-(3,3,3-trifluoropropyl)piperidin-4-yl)methyl)sulfonyl)piperidin-4-yl)isoxazole-3-carboxamide], for which the results for the IC50 in test [1] and in test [2] were 179 nM and 746 nM, respectively.
As for `CC1CN(S(=O)(=O)N2CC[C@H](NC(=O)c3cc(C4CC4)on3)C[C@@H]2C)CCN1C` (stereo partly drawn) [compound 699, 5-cyclopropyl-N-((2S,4S)-1-((3,4-dimethylpiperazin-1-yl)sulfonyl)-2-methylpiperidin-4-yl)isoxazole-3-carboxamide], the IC50 in test [1] was determined as 193 nM; in test [2], 658 nM.
For `O=C(N[C@H]1CCN(S(=O)(=O)CC2CCCNC2)[C@@H](Cc2ccccc2)C1)c1cc(C2CC2)on1` (stereo partly drawn) [compound 700, N-((2S,4S)-2-benzyl-1-((piperidin-3-ylmethyl)sulfonyl)piperidin-4-yl)-5-cyclopropylisoxazole-3-carboxamide], the IC50 was 194 nM in test [1] and 2110 nM in test [2].
Take `CC1CN(S(=O)(=O)N2CC[C@H](NC(=O)c3cc(C4CC4)on3)C[C@@H]2C)CC(C)N1` (stereo partly drawn) [compound 701, 5-cyclopropyl-N-((2S,4S)-1-((3,5-dimethylpiperazin-1-yl)sulfonyl)-2-methylpiperidin-4-yl)isoxazole-3-carboxamide]: the IC50 in test [1] was found to be 210 nM; in test [2], 1840 nM.
Consider `CC1CN(S(=O)(=O)N2[C@@H]3CC[C@H]2C[C@@H](NC(=O)c2cc(C4CC4)on2)C3)CC(C)N1C` (stereo partly drawn) [compound 702, 5-cyclopropyl-N-((1R,3r,5S)-8-((3,4,5-trimethylpiperazin-1-yl)sulfonyl)-8-azabicyclo[3.2.1]octan-3-yl)isoxazole-3-carboxamide], for which the IC50 in test [1] worked out at 215 nM; in test [2], 1240 nM.
`CN(CCCS(=O)(=O)N1[C@@H]2CC[C@H]1C[C@@H](NC(=O)c1cc(C3CC3)on1)C2)CCN1CCOCC1` [compound 703, 5-cyclopropyl-N-((1R,3r,5S)-8-((3-(methyl(2-morpholinoethyl)amino)propyl)sulfonyl)-8-azabicyclo[3.2.1]octan-3-yl)isoxazole-3-carboxamide]: the IC50 in test [1] was determined as 217 nM; in test [2], 804 nM.
For `O=C(N[C@H]1C[C@H]2CC[C@@H](C1)N2S(=O)(=O)CCNCCc1ccccc1)c1cc(C2CC2)on1` [compound 705, 5-cyclopropyl-N-((1R,3r,5S)-8-((2-(phenethylamino)ethyl)sulfonyl)-8-azabicyclo[3.2.1]octan-3-yl)isoxazole-3-carboxamide], the IC50 was 225 nM in test [1] and 1510 nM in test [2].
`C[C@H]1C[C@@H](NC(=O)c2cc(C3CC3)on2)CCN1S(=O)(=O)c1ccncc1` [compound 706, 5-cyclopropyl-N-((2S,4S)-2-methyl-1-(pyridin-4-ylsulfonyl)piperidin-4-yl)isoxazole-3-carboxamide]: the IC50 is 238 nM in test [1] and 1210 nM in test [2].
In the case of `O=C(N[C@H]1CCN(S(=O)(=O)CC2CCN(CCCO)CC2)[C@@H](Cc2ccccc2)C1)c1cc(C2CC2)on1` [compound 707, N-((2S,4S)-2-benzyl-1-(((1-(3-hydroxypropyl)piperidin-4-yl)methyl)sulfonyl)piperidin-4-yl)-5-cyclopropylisoxazole-3-carboxamide], the values for the IC50 in test [1] and in test [2] were 247 nM and 2540 nM, respectively.

For the origin of these results see patent US10577363B2, “Substituted piperidine compounds” (EPIZYME, INC., priority 2014, dated 2020).
